Assay results: patent US20040209929A1, “Fused heteroaryl carboxylic acids as PPAR agonists” (Agouron Pharmaceuticals, Inc., priority 2003, published 2004)

What follows are molecules tested against T1, PPAR-γ (Homo sapiens, UniProt P37231) (assay: Scintillation Proximity Assay (SPA), displacement of 3H labeled darglitazone from PPAR-γ). Details: PPAR protein on polylysine beads, read-out: PPAR-γKi.
T1 sequence (P37231 1-505): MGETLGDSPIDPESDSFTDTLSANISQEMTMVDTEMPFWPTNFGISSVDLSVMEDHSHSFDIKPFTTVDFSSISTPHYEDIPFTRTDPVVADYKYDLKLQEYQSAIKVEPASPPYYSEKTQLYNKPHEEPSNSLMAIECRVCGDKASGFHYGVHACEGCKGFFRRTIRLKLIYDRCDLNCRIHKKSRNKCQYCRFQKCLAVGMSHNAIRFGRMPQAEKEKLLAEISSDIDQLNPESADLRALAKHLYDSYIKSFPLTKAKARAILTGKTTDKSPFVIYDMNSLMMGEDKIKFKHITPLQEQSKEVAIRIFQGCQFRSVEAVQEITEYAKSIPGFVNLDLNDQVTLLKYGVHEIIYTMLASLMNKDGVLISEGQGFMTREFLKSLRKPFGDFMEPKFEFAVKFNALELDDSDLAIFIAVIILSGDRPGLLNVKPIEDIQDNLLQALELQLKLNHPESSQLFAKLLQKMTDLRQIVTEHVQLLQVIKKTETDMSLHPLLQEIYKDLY
Format: binding
From the text: Scintillatian Proximity Assay (SPA) Assays
In the SPA assay, 3H labeled darglitazone (for PPAR-γ) or GW^2331 (for PPAR-α) in bound to the PPAR protein captured on SPA polylysine beads and generates radioactive count signal that can be detected by TopCounts (Packard). The PPAR-bound 3H labeled ligand can be displaced by an unlabeled compound. The Ki of the compound can be then determined by the extent of displacement at various compound concentrations.
SPA polylysine beads, which can be purchased from Amersham Bioscience.
3H labeled Darglitazone for PPAR-γ.
Buffer—PBS, 10% glycerol, 14 mM beta-mercaptoethanol.

Ki [µM]	SMILES
> 100	Cc1oc(-c2ccccc2)nc1COc1ccc2cnn(CCCC(=O)O)c2c1 [Example 3, 4-{6-[(5-methyl-2-phenyl-1,3-oxazol-4-yl)methoxy]-1H-indazol-1-yl}butanoic acid]
0.58	Cc1oc(-c2ccccc2)nc1CCOc1cccc2c1cnn2CCC(=O)O [Example 1, 3-{4-[2-(5-methyl-2-phenyl-1,3-oxazol-4-yl)ethoxy]-1H-indazol-1-yl}propanoic acid]
7	Cc1oc(-c2ccccc2)nc1CCCn1ncc2c(OC(C)(C)C(=O)O)cccc21 [Example 33, 2-methyl-2-({1-[3-(5-methyl-2-phenyl-1,3-oxazol-4-yl)propyl]-1H-indazol-4-yl}oxy)propanoic acid]
> 50	Cc1oc(-c2ccccc2)nc1CCOc1cccc2c1cnn2CCCC(=O)O [Example 18]
> 100	O=C(O)CCCn1ncc2ccc(OCc3nc(-c4ccccc4)oc3-c3ccccc3)cc21 [Example 10, 4-{6-[(2,5-diphenyl-1,3-oxazol-4-yl)methoxy]-1H-indazol-1-yl}butanoic acid]
> 50	Cc1oc(-c2ccccc2)nc1CCOc1ccnc2c1ccn2CC(=O)O [Example 29, {4-[2-(5-methyl-2-phenyl-1,3-oxazol-4-yl)ethoxy]-1H-pyrrolo[2,3-b]pyridin-1-yl}acetic acid]
1.8	O=C(O)CCn1ncc2ccc(OCc3nc(-c4ccccc4)oc3-c3ccccc3)cc21 [Example 6, 3-{6-[(2,5-diphenyl-1,3-oxazol-4-yl)methoxy]-1H-indazol-1-yl}propanoic acid]
> 50	Cc1oc(-c2ccccc2)nc1CCOc1cccc2c1ncn2CCC(=O)O [Example 34, 3-{4-[2-(5-methyl-2-phenyl-1,3-oxazol-4-yl)ethoxy]-1H-benzimidazol-1-yl}propanoic acid]
> 50	Cc1oc(-c2ccccc2)nc1CCOc1cccc2c1cnn2CC(=O)O [Example 49]
> 50	Cc1oc(-c2ccccc2)nc1CCCOc1cccc2c1cnn2CCC(=O)O [Example 27, 3-{4-[3-(5-methyl-2-phenyl-1,3-oxazol-4-yl)propoxy]-1H-indazol-1-yl}propanoic acid]
> 50	Cc1oc(-c2ccccc2)nc1CCOc1ccc2cnn(CCC(=O)O)c2c1 [Example 21, 3-{6-[2-(5-methyl-2-phenyl-1,3-oxazol-4-yl)ethoxy]-1H-indazol-1-yl}propanoic acid]
0.58	Cc1oc(-c2ccccc2)nc1CCNc1ccnc2c1ccn2CCC(=O)O [Example 46]
19	Cc1oc(-c2ccccc2)nc1CCOc1cccc2c1c(C(=O)C(F)(F)F)cn2CCC(=O)O [Example 44]
9	Cc1oc(-c2ccccc2)nc1CCOc1ccnc2c1ccn2CCC(=O)O [Example 45]
10	Cc1oc(-c2ccccc2)nc1COc1cccc2c1cnn2CCCC(=O)O [Example 15, 4-{4-[(5-methyl-2-phenyl-1,3-oxazol-4-yl)methoxy]-1H-indazol-1-yl}butanoic acid]
> 100	Cc1oc(-c2ccccc2)nc1CCOc1cccc2c1ccn2CC(CCC(=O)O)C(=O)O (stereo not shown) [Example 51]
4	Cc1oc(-c2ccccc2)nc1COc1cccc2c1cnn2CCC(=O)O [Example 17, 3-{4-[(5-methyl-2-phenyl-1,3-oxazol-4-yl)methoxy]-1H-indazol-1-yl}propanoic acid]

Ki [µM]	SMILES
30	Cc1oc(-c2ccccc2)nc1CCOc1cccc2c1ccn2CC(=O)O [Example 48]
> 50	Cc1oc(-c2ccccc2)nc1CCn1ccc2c(OCC(=O)O)ccnc21 [Example 47]
4	O=C(O)Cn1ncc2c(OCc3nc(-c4ccccc4)oc3-c3ccccc3)cccc21 [Example 12, {4-[(2,5-diphenyl-1,3-oxazol-4-yl)methoxy]-1H-indazol-1-yl)acetic acid]
> 50	Cc1oc(-c2ccccc2)nc1CCOc1ccc2cnn(CCCC(=O)O)c2c1 [Example 22, 4-{6-[2-(5-methyl-2-phenyl-1,3-oxazol-4-yl)ethoxy]-1H-indazol-1-yl}butanoic acid]
41	Cc1oc(-c2ccccc2)nc1COc1ccc2cnn(CCC(=O)O)c2c1 [Example 13, 3-{6-[(5-methyl-2-phenyl-1,3-oxazol-4-yl)methoxy]-1H-indazol-1-yl}propanoic acid]
8.5	Cc1oc(-c2ccccc2)nc1CCOc1ccnc2c(CCC(=O)O)cccc12 [Example 53]
> 100	O=C(O)CCCn1ncc2c(OCc3nc(-c4ccccc4)oc3-c3ccccc3)cccc21 [Example 11, 4-{4-[(2,5-diphenyl-1,3-oxazol-4-yl)methoxy]-1H-indazol-1-yl}butanoic acid]
> 100	Cc1oc(-c2ccccc2)nc1COc1cccc2c1ccn2CCCC(=O)O [Example 55]
> 50	Cc1oc(-c2ccccc2)nc1COc1ccc2cnn(CC(=O)O)c2c1 [Example 4, {6-[(5-methyl-2-phenyl-1,3-oxazol-4-yl)methoxy]-1H-indazol-1-yl}acetic acid]
> 50	Cc1oc(-c2ccccc2)nc1CCCOc1cccc2c1cnn2CC(=O)O [Example 25, {4-[3-(5-methyl-2-phenyl-1,3-oxazol-4-yl)propoxy]-1H-indazol-1-yl}acetic acid]
> 50	Cc1oc(-c2ccccc2)nc1CCOc1ccc2cnn(CC(=O)O)c2c1 [Example 20, {6-[2-(5-methyl-2-phenyl-1,3-oxazol-4-yl)ethoxy]-1H-indazol-1-yl}acetic acid]
6.9	O=C(O)Cn1ncc2ccc(OCc3nc(-c4ccccc4)oc3-c3ccccc3)cc21 [Example 7, {6-[(2,5-diphenyl-1,3-oxazol-4-yl)methoxy]-1H-indazol-1-yl}acetic acid]
3.7	O=C(O)CCn1ncc2c(OCc3nc(-c4ccccc4)oc3-c3ccccc3)cccc21 [Example 14, 3-{4-[(2,5-diphenyl-1,3-oxazol-4-yl)methoxy]-1H-indazol-1-yl}propanoic acid]
> 50	Cc1oc(-c2ccccc2)nc1CCCOc1cccc2c1cnn2CCCC(=O)O [Example 23, 4-{4-[3-(5-methyl-2-phenyl-1,3-oxazol-4-yl)propoxy]-1H-indazol-1-yl}butanoic acid]
4.9	Cc1oc(-c2ccccc2)nc1CCOc1cccc2c1c(Cl)cn2CCC(=O)O [Example 50]
> 100	Cc1oc(-c2ccccc2)nc1COc1cccc2c1cnn2CC(=O)O [Example 16, {4-[(5-methyl-2-phenyl-1,3-oxazol-4-yl)methoxy]-1H-indazol-1-yl}acetic acid]
16	Cc1oc(-c2ccccc2)nc1CCOc1cccc2c1ccn2CCCC(=O)O [Example 54]
